Measured values from patent publication US8680058B2, “Selectively targeted antimicrobial peptides and the use thereof” (priority 2006, dated 2014).
Like-named read-outs stand apart in the source and are kept apart here. No end group written: not given here.

Key:
S. gordonii biofilms = assay: Single-species biofilm regrowth after peptide exposure, S. gordonii; type: cell-based; conditions: 25 μM peptide, 1 min exposure
Procedure: 1.5 Examination of antimicrobial activity against single-species biofilms. To initiate biofilm formation, ˜1×10^7 bacteria per well (from overnight cultures) were seeded in TH medium (100 μL) to a 96-well flat-bottom plate. For all streptococci except S. mutans, the medium was supplemented with 0.5% (w/v) mannose and glucose. S. mutans UA159 biofilms were grown with 0.5% (w/v) sucrose. Plates were then centrifuged briefly to pellet the cells, and bacteria were incubated for 3-4 hours at 37° C. for biofilm formation. After incubation, the supernatant was carefully removed and biofilms were treated with 25 μM peptide in 1×PBS or 1×PBS alone for 1 min. The peptide solution was then removed and 100 μL TH was added to further dilute any remaining peptide. To minimize biofilm loss, cells were briefly centrifuged after TH addition, after which the supernatants were removed and fresh medium plus appropriate sugars were returned. Cells were then incubated anaerobically at 37° C. and biofilm growth was monitored over time by measuring absorbance at OD600 with a microplate spectrophotometer (Benchmark Plus, BioRad).

S. mutans UA159 = assay: Time-kill (bactericidal kinetics), planktonic S. mutans; type: cell-based, Streptococcus mutans; conditions: 25 μM, 1 min exposure
Procedure: 1.4 Determination of bactericidal kinetics. To determine the short term killing rate and selectivity of C16G2 and G2 we performed time-kill experiments, essentially as described previously (Eckert et al., 2006). S. mutans UA159, S. gordonii, or S. sanguinis were grown to log phase and diluted to ˜1×10^5 cfu/mL in growth medium. Under aerobic conditions, 25 μM G2 or C16G2 was added to the cell suspension and incubated at 25° C. At 1 min, 10 μL of cell suspension was removed, rescued by dilution into growth medium (1:50) and kept on ice. For plating, 20-500 μL of rescued cells were spread on growth medium agar plates and colonies were counted after overnight incubation at 37° C. under anaerobic conditions. We considered 60 cfu/mL as the detection limit for this assay. Values of surviving cfu/mL were expressed as the ratio of survivors from C16G2-treated cultures to cfu/mL from samples exposed to G2.

other oral streptococci = assay: Binding of fluorescently labeled peptides to other oral streptococci; conditions: fluorescently labeled peptide
Description: (§1) 1.2 Fluorescent labeling of peptides and fluorescence microscopy. Aliquots of CSPC16 (SEQ ID NO 2), CSP-fragment peptides (Table 2), and C16G2 (SEQ ID NO 4) were labeled with carboxyfluorescein (Sigma) as described previously (Eckert et al., 2006). After peptide cleavage but prior to the bacterial labeling assay, fluorescence intensity per μM peptide was checked fluorimetrically (λex=488 nm, λem=520 nm VersaFluor, BioRad) and found to be relatively similar (data not shown). To evaluate the level of peptide binding to bacteria, streptococci from an overnight culture (OD600 of 0.7-1.0) were washed with phosphate buffered saline (1×PBS), diluted 1:2 into 1×PBS, and exposed to peptide (16 μM) for 5 min at 25° C. After incubation with peptide, unbound agent was removed from the bacteria by three cycles of centrifugation (5 min, 16,000×g) and resuspension in 1×PBS. Labeling of oral streptococci was evaluated using brightfield and fluorescence microscopy (Nikon E400) at a 40× magnification. The digital images utilized for the semi-quantitative binding assessment were acquired with the factory-supplied software (SPOT, Diagnostics).

S. mutans = type: cell-based, Streptococcus mutans
Procedure: (§2) 1.3 Determination of antimicrobial activity. The general antimicrobial activity of peptides against planktonic bacteria was determined by a MIC assay in TH broth (all oral streptococci) (Qi et al., 2005).
(§3) S. mutans, S. gordonii Challis (DL1), and S. sanguinis NY101 strains were grown in Todd Hewitt (TH, Fisher) broth medium at 37° C. under anaerobic conditions (80% N2, 10% CO2, and 10% H2). S. mutans strains UA159 (Ajdic et al., 2002), ATCC 25175, and T8 (Rogers, 1975), are wild-type clinical isolates, while comD is a knockout mutant that was constructed previously from the wild-type UA140 background (Qi et al., 2005). Luciferase expressing S. mutans strain JM11 was constructed from UA140 as described (Merritt et al., 2005). Exponentially growing bacterial cells were diluted to ˜1×10^5 cfu/mL in TH and placed into 96-well plates (Fisher). Peptides were then serially diluted and added to the bacteria.

S. sanguinis = type: cell-based, S. sanguinis NY101
Procedure: as §2, §3

S. gordonii = type: cell-based, S. gordonii Challis (DL1)
Procedure: as §2, §3

S. mutans UA159 and comD = assay: Binding of fluorescently labeled peptides to S. mutans (fluorescence microscopy); set-up: species or system Streptococcus mutans; conditions: fluorescently labeled peptide
Description: To determine whether there was a region within the CSPC16 sequence that was responsible for S. mutans-specific binding, we synthesized a series of fluorescently labeled CSPC16 fragments, and analyzed their ability to bind to S. mutans. The following strategies were utilized in dissecting the CSPC16 sequence (Table 2): First, a series of fragments were constructed by generating deletions of 3 or 4 amino acids, from the N to C terminus, across the CSPC16 sequence (C16-1 to C16-5). Peptides lacking larger portions of the C or N termini of CSPC16 were also synthesized (C16-6 to C16-12). Additionally, peptides with Arg to […] (a positive to negative change in charge) (C16-4) or Phe to Gly substitutions (for a general decrease in hydrophobicity) (C16-3), as well as peptides representing a 4-residue Ala scan of the C16 sequence were constructed (C 16-15 to C16-18). […] These peptides include C16 (SEQ ID NO 1), C16-3 (SEQ ID NO 39), C16-4 (SEQ ID NO 40), C16-5 (SEQ ID NO 41), C16-6 (SEQ ID NO 42), C16-11 (SEQ ID NO 47), C16-12 (SEQ ID NO 5), C16-16 (SEQ ID NO 51), C16-17 (SEQ ID NO 52), and C16-18 (SEQ ID NO 53).
as §1

“TFFRLFNRSFTQALGKGGGKNLRIIRKGIHIIKKY-NH2 [Peptide C16G2]” was tested, and the “biofilm re-growth after treatment (OD600)” value (S. gordonii biofilms) was “grew similarly to untreated biofilms”, the “activity in comparison to G2 (surviving cfu/mL)” value (S. mutans UA159) was “over 20 fold” and the “binding to other oral streptococci” value (other oral streptococci) was “not to other oral streptococci”. The “increase in antimicrobial activity over the parental antimicrobial peptide G2” value (S. mutans; MIC, S. mutans strains) was 4-5 fold, the MIC (S. mutans; S. mutans 25175) was 3.8 ± 0.3 µM and the MIC (S. mutans; S. mutans T8) was 3.7 ± 0.2 µM. It also gave an MIC (S. mutans; S. mutans UA159) of 3.0 ± 1.6 µM, an MIC (S. mutans; S. mutans comD) of 5.1 ± 2.4 µM and an MIC (S. sanguinis) of 19.1 ± 4.0 µM. For the same substance, the “difference in susceptibility between G2 and C16G2” value (S. sanguinis; MIC, S. sanguinis) was ≤ 2 fold, the MIC (S. gordonii) was 23.5 ± 7.8 µM and the “difference in susceptibility between G2 and C16G2” value (S. gordonii; MIC, S. gordonii) was ≤ 2 fold. The “binding to S. mutans (in words)” value (S. mutans UA159 and comD) was “could specifically bind to S. mutans”.
